In patent US7691969B2, “Isolated GRP94 ligand binding domain polypeptide and nucleic acid encoding same, crystalline form of same, and screening methods employing same” (Duke University, priority 2001, dated 2010):
Each block holds one molecule with its values, some of them ahead of it.

Legend:
GRP94 [1] = molecular target: T1, GRP94 (Sus scrofa, UniProt Q29092); experiment: Fluorophore binding to native and heat shocked GRP94 (fluorescence emission); design: species or system porcine; conditions: for fluorophore binding to native versus heat shocked GRP94 (fluorescence emission): 0.5 μM GRP94, 5 μM probe, 37° C.
T1 construct: GRP94 was purified from porcine pancreas rough microsomes; from tissue; host or cells: porcine pancreas rough microsomes (lumenal contents)
Source text: Fluorophore Binding Reactions.
Fluorescence Measurements. […] All spectra were background corrected.
To characterize the structural basis for the heat shock dependent activation of GRP94 activity, the interaction of polarity-sensitive fluorophores with native and heat shocked GRP94 was examined. The three probes tested, Prodan (6-propionyl-2-(dimethylamino)naphthalene), 8-ANS (1,8-anilinonaphthalenesulfonate) and bis-ANS (bis(1,8-anilino-naphthalenesulfonate) are structurally related probes that bind to hydrophobic sites on proteins and undergo substantial fluorescence spectrum changes upon introduction into nonpolar environments, as discussed by Rosen & Weber (1969) Biochemistry 8:3915-3920; Weber & Farris (1979) Biochemistry 18:3075-3078; Takashi et al. (1977) Proc Natl Acad Sci USA 74:2334-2338; Shi et al. (1994) Biochemistry 33:7536-7546. The following experimental protocol was utilized. GRP94 was warmed to 37° C. and either maintained at 37° C. or heat shocked for 15 minutes at 50° C., followed by incubation at 37° C. Subsequently, probe stocks were added to the GRP94 stocks and emission spectra recorded after 30 min at 37° C.
Under the experimental conditions used in this series of experiments, bis-ANS binding to GRP94 was near maximal at a 20-fold molar excess of GRP94 monomer over bis-ANS, with half maximal binding observed at 110 nM GRP94 (FIG. 2B).

casein kinase II = casein kinase II (Homo sapiens, UniProt P68400); experiment: Casein kinase assay; type: biochemical; conditions: 180 μM NECA or radicicol in 3.6% DMSO, 5 μg/ml heparin, 5 mM GTP; 4 μM casein
Description: (§1) Phosphorylation Assays. To assay for GRP94 autophosphorylation, 1 μM GRP94 was incubated with γ-[^32P]ATP (6000 cpm/pmol) (Amersham Pharmacia Biotech of Piscataway, N.J.), diluted with cold ATP to yield a final concentration of 0.15 mM ATP in a buffer containing 10 mM Mg(OAc)2 and 50 mM K-Hepes, pH 7.4. For the casein kinase assay, 1 unit of casein kinase II was incubated as described above, with the addition of 4 μM casein. […] The 25 μl reaction mixtures were incubated at 37° C. for 1 hour and quenched by addition of 10% trichloroacetic acid. Samples were analyzed by 10% SDS-PAGE gels and the phosphorylated species were quantitated using a Fuji MACBAS1000™ phosphorimaging system (Fuji Medical Systems of Stamford, Conn.).

GRP94 [2] = molecular target: T1, GRP94; experiment: GRP94 autophosphorylation assay; type: biochemical, porcine; conditions: 180 μM NECA or radicicol in 3.6% DMSO, 5 μg/ml heparin, 5 mM GTP
Description: as §1

GRP94 [3] = molecular target: T1, GRP94; experiment: [3H]-NECA competitive displacement assay; type: binding, porcine; conditions: for nucleoside base specificity: binding to GRP94 by [3H]-NECA displacement: competitors at 50 μM; for effect of excess Mg2+ on binding to GRP94: 10 mM Mg(OAc)2 versus nominal magnesium
Description: Where indicated, binding reactions were performed in either buffer C (10 mM Tris, pH 7.5, 50 mM KCl, 5 mM MgCl2, 2 mM DTT, 0.01% NP-40, 20 mM Na2MoO4) or 50 mM Tris, pH 7.5, 10 mM Mg(OAc)2. […] Vacuum filtration was performed with an Amersham Pharmacia Biotech (Piscataway, N.J.) vacuum filtration manifold.
All binding reactions were performed in triplicate and corrected by subtraction of background values, determined in binding reactions lacking GRP94.

HSP90 = HSP90 (Saccharomyces cerevisiae, UniProt P02829); conditions: cited from earlier work
GRP94 [4] = molecular target: T1, GRP94; experiment: Tryptophan fluorescence (tertiary conformational state); type: biochemical, porcine; conditions: 50 μM NECA, 50 μM geldanamycin, 2.5 mM ATP or 2.5 mM ADP; 1 h 37° C.
Description: Tryptophan Fluorescence. Tryptophan fluorescence measurements were conducted in a FLUOROMAX™ spectrofluorometer (Spex Industries, Inc. of Edison, N.J.) with the slit widths set to 1 nm for both excitation and emission. […] All spectra were corrected by subtraction of buffer or buffer plus ligand samples. GRP94 (50 μg/ml) was incubated in buffer A supplemented with 10 mM Mg(OAc)2 and the following concentrations of ligands for 1 hour at 37° C. […] Samples were then cooled to room temperature, transferred to a quartz cuvette, and the spectra collected.

casein kinase II, sequence (P68400 whole entry): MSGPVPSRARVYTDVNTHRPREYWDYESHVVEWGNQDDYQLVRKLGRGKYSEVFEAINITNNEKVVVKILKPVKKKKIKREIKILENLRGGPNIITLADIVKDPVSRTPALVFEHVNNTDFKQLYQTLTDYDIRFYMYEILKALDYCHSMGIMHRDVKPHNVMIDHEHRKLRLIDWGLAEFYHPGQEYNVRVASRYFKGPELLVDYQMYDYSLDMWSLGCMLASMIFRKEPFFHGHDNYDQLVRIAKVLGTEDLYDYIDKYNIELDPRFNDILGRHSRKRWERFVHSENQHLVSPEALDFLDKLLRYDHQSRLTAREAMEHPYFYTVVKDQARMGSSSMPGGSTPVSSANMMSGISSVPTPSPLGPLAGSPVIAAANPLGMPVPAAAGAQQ
casein kinase II, sequence (P67870 whole entry partner): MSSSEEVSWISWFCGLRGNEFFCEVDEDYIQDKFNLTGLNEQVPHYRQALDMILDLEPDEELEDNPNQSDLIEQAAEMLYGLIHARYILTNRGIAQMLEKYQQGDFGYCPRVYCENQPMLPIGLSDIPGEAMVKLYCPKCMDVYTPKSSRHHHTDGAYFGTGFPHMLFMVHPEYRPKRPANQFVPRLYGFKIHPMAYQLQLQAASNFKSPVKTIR
T1 sequence (Q29092 22-804): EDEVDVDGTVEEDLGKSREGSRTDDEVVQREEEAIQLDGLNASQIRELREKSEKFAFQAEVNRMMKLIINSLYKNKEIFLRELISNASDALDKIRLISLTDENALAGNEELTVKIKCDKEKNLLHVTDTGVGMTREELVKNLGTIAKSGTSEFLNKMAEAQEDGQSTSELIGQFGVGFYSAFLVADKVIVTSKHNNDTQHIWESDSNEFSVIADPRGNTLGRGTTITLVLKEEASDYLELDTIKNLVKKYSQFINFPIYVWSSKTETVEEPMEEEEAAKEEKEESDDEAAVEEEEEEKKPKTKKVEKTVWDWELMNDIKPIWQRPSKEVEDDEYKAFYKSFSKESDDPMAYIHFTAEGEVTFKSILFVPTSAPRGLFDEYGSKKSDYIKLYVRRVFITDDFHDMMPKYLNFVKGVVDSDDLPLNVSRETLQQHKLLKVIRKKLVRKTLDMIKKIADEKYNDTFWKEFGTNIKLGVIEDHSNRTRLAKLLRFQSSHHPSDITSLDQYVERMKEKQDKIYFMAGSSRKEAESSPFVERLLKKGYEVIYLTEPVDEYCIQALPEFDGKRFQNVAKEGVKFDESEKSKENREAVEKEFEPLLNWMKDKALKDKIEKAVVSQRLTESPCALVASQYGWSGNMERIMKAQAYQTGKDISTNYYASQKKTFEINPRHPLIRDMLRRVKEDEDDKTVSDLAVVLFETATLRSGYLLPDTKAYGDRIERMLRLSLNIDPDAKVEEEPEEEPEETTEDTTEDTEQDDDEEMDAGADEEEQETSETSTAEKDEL
HSP90, sequence (P02829 whole entry): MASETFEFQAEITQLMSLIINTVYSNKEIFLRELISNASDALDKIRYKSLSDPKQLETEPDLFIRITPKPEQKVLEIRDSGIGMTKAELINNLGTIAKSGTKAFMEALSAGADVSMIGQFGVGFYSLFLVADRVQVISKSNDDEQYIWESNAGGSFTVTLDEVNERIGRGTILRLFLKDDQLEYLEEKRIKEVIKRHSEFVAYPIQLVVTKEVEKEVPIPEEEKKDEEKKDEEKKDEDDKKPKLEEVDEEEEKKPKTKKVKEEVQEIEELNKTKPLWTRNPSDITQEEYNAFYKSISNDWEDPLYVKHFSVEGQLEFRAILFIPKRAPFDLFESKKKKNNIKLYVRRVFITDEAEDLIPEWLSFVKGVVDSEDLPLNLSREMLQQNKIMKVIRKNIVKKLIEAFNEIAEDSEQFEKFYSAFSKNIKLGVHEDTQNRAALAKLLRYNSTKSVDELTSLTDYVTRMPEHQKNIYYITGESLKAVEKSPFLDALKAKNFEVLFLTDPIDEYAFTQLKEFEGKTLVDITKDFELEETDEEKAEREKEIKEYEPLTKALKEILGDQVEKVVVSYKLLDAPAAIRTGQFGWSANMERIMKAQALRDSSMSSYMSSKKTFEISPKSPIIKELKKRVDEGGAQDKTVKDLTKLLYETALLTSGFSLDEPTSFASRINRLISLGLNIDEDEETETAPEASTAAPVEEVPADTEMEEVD

Molecule: O=S(=O)(O)c1cccc2cccc(Nc3ccccc3)c12 [8-ANS, 1,8-anilinonaphthalenesulfonate]
agonist activity for GRP94 activation (GRP94 [1]): functions solely as an indicator and lacks agonist activity
fluorophore binding to native versus heat shocked GRP94 (fluorescence emission) (GRP94 [1]): displays weak interactions with native GRP94, yet binds avidly following heat shock

nucleoside base specificity: binding to GRP94 by [3H]-NECA displacement (GRP94 [3]): little to no binding
Molecule: Nc1nc2c(ncn2[C@@H]2O[C@H](COP(=O)(O)OP(=O)(O)OP(=O)(O)O)[C@@H](O)[C@H]2O)c(=O)[nH]1 [GTP]
inhibition of casein kinase II activity (casein kinase II): markedly attenuated GRP94-derived and casein kinase II activity
inhibition of GRP94 autophosphorylation (GRP94-derived kinase) activity (GRP94 [2]): markedly attenuated GRP94-derived and casein kinase II activity

Molecule: CCC(=O)c1ccc2cc(N(C)C)ccc2c1 [Prodan, 6-propionyl-2-(dimethylamino)naphthalene]
fluorophore binding to native versus heat shocked GRP94 (fluorescence emission) (GRP94 [1]): does not interact with the hydrophobic binding pocket(s) displayed by heat shocked GRP94

nucleoside base specificity: binding to GRP94 by [3H]-NECA displacement (GRP94 [3]): little to no binding
Molecule: O=c1ccn([C@@H]2O[C@H](COP(=O)(O)OP(=O)(O)OP(=O)(O)O)[C@@H](O)[C@H]2O)c(=O)[nH]1 [UTP]

Molecule: Heparin
inhibition of casein kinase II activity (casein kinase II): markedly attenuated GRP94-derived and casein kinase II activity
inhibition of GRP94 autophosphorylation (GRP94-derived kinase) activity (GRP94 [2]): markedly attenuated GRP94-derived and casein kinase II activity

relative affinities for GRP94 in presence of Mg2+ (GRP94 [3]; excess Mg2+): nearly identical relative affinities
Molecule: Nc1ncnc2c1ncn2[C@@H]1O[C@H](COP(=O)(O)OP(=O)(O)O)[C@@H](O)[C@H]1O [ADP]
affinity of N-terminal domain of Hsp90, ADP relative to ATP (HSP90; Prodromou et al. (1997)): four-fold higher affinity than that observed for ATP
change of GRP94 tryptophan fluorescence (GRP94 [4]): the tryptophan fluorescence was decreased
effect of excess Mg2+ on binding to GRP94 (GRP94 [3]): markedly stimulated the binding of ATP, ADP and AMP

nucleoside base specificity: binding to GRP94 by [3H]-NECA displacement (GRP94 [3]): little to no binding
Molecule: Nc1ccn([C@@H]2O[C@H](COP(=O)(O)OP(=O)(O)OP(=O)(O)O)[C@@H](O)[C@H]2O)c(=O)n1 [CTP]

Molecule: Nc1ncnc2c1ncn2[C@@H]1O[C@H](COP(=O)(O)O)[C@@H](O)[C@H]1O [AMP]
effect of excess Mg2+ on binding to GRP94 (GRP94 [3]): markedly stimulated the binding of ATP, ADP and AMP

nucleoside base specificity: binding to GRP94 by [3H]-NECA displacement (GRP94 [3]): GRP94 could bind both ATP and deoxyATP
Molecule: Nc1ncnc2c1ncn2[C@H]1C[C@H](O)[C@@H](COP(=O)(O)OP(=O)(O)OP(=O)(O)O)O1 [deoxyATP]

Molecule: C[C@@H]1C[C@H]2O[C@@H]2/C=C\C=C\C(=O)Cc2c(Cl)c(O)cc(O)c2C(=O)O1 [radicicol]
inhibition of casein kinase II activity (casein kinase II): neither NECA nor radicicol, both of which bind to the N-terminal nucleotide binding domain of GRP94, significantly inhibit GRP94 derived or casein kinase II activity below the solvent background
binding stoichiometry to Hsp90 (HSP90; Roe et al. (1999)): 2 mol radicicol/mol Hsp90 dimer

Molecule: Nc1ncnc2c1ncn2[C@@H]1O[C@H](CO)[C@@H](O)[C@H]1O [adenosine]
relative displacement activity in [3H]-NECA competition (GRP94 [3]): relative displacement activity approximating that observed for ADP
effect of excess Mg2+ on binding to GRP94 (GRP94 [3]): without effect on the binding of NECA or adenosine to GRP94
